Patent US20120107305A1, “Combination Therapy” (priority 2006, published 2012)

How the values were obtained:
[1] = tested on: A431 human tumour xenografts; experiment: A431 human vulval epidermoid carcinoma xenograft model; type: in vivo, female athymic mice (Swiss nu/nu); conditions: 20 days after randomisation; ZD6474 25 mg/kg/day p.o. once daily, bevacizumab 0.5 mg/kg i.p. twice a week; nude mice
Method: Experiments were conducted on female athymic mice (Swiss nu/nu genotype, ≧6 weeks of age). A431 human tumour xenografts were established in the experimental mice by injecting 1×10^7 cells per mouse, mixed in a ratio of 1:1 with Matrigel, subcutaneously in the dorsal flank in a volume of 100 μl. Tumour volumes were assessed at least twice weekly by bilateral Vernier calliper measurements. Mice were randomised into treatment groups when the tumour volume reached 0.2-0.4 cm^3 (day 0, this was after 7 days in Example 1 below).
Tumour growth inhibition from the start of treatment was assessed by comparison of the differences in tumour volume (median and geometric mean) between control and treated groups.
Control animals (Group I) received drug vehicles alone.

VEGF RTK = conditions: cited from earlier work
tumour models = conditions: once-daily oral administration; range of models; cited from earlier work

| Molecule | A431 tumor volume, Geometric mean [1] [cm^3] | Inhibition of VEGF RTK (VEGF RTK) | Anti-tumour activity (tumour models) |
| --- | --- | --- | --- |
| COc1cc2c(Nc3ccc(Br)cc3F)ncnc2cc1OCC1CCN(C)CC1 [ZD6474, 4-(4-bromo-2-fluoroanilino)-6-methoxy-7-(1-methylpiperidin-4-ylmethoxy)quinazoline] | 0.149 | potent inhibitor | broad-spectrum anti-tumour activity |
| Bevacizumab: recombinant humanised monoclonal antibody to the vascular endothelial growth factor ligand VEGF-A | 0.553 |  |  |
